# Results: US20140328771A1, “METHOD FOR PRODUCING 3-MENTHOXY PROPANOL AND COMPOSITIONS FOR IMPARTING COOLING SENSATION” (Takasago International Corporation, priority 2011, published 2014)
# Experiment: Oral sensory evaluation of 50-ppm aqueous solutions by ten special panelists
# Assay type: in vivo, human
# Details: 50-ppm aqueous solution
# Procedure: Using 3-1-menthoxy-1-propanol (1) obtained in Example 1, the mixture (2) of 3-1-menthoxy-1-propanol and 1-1-menthoxy-2-propanol at a weight ratio of 93:7 obtained in Example 2, and 1-1-menthoxy-2-propanol (3) obtained in Example 1, 50-ppm aqueous solutions were prepared.
# The three 50-ppm aqueous solutions were subjected to oral sensory evaluation by ten special panelists with five or more years of experience.
smiles,measurement,setting,value
"CC1CCC(C(C)C)C(OCCCO)C1 (centres unmarked) [(1), 3-1-menthoxy-1-propanol]",refreshing sensation,all the ten panelists,marked refreshing sensation
same,strength and persistence of refreshing sensation,seven of the ten panelists,stronger and long-lasting refreshing sensation
